According to patent publication US11045472B2, “Quinazoline-pyridine derivatives for the treatment of cancer-related disorders” (ARCUS BIOSCIENCES, INC., priority 2017, dated 2021):

How the values were obtained:
Human A2AR = target: T1, Human A2AR (Homo sapiens, UniProt P29274); assay: human 2A Adenosine Receptor (A2aR) CHO-TREx cAMP functional assay; assay type: cell-based; details: cAMP antagonist functional assay, CHO-T-REx cells expressing Human A2AR, NECA stimulation; read-out: Potency: A2AR KB
T1 construct: expressed in transfected cells; host or cells: CHO-T-REx cells (inducible expression)
T1 sequence (P29274 whole entry): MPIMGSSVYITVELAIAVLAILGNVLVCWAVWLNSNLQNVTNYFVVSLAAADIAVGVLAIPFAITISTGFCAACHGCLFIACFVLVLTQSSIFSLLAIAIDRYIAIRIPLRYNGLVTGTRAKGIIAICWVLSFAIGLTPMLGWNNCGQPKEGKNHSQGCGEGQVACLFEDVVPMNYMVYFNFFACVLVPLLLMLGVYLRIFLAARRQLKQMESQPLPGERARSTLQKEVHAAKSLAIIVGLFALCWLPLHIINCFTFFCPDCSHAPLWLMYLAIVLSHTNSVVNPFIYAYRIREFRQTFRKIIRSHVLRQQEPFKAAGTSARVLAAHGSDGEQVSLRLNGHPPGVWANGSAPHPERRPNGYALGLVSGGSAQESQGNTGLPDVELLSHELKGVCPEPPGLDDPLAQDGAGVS
Protocol: Measurement of the Adenosine Receptor Activity of Compounds using a human 2A Adenosine Receptor (A2aR) CHO-TREx cAMP Functional Assay
The cAMP antagonist functional assay (Perkin Elmer) was performed on CHO-T-REx cells induced to express Human A2AR. Cells were seeded to a white 384-well Opti plate at a density of 1,000 to 2,500 cells per well followed by incubation with various concentrations of compound (ranging from 1 μM to 0 μM) at 37° C. for 1 hour.
(§1) A 1:2 serial dilution of NECA (Sigma Aldrich) from 1 μM to 0 μM was added to the cell stimulation mixture and incubated for 30 min at 37° C. After 30 min incubation, 5 μL of Ulight-anti-cAMP (1:150 dilution with conjugate and lysis buffer provided by Perkin Elmer) and 5 μL of Eu-cAMP tracer (1:50 dilution with conjugate and lysis buffer provided by Perkin Elmer) was added the cells and incubated for an hour. FRET signal was detected with an Envision multilabel plate reader (Perkin Elmer) loaded with 615 nm […] filters and 665 nm emission filters.
(§2) Data analysis was performed using on GraphPad Prism (version 7.02) to determine the KB of the test compounds.

Human A2BR = target: T2, Human A2BR (Homo sapiens, UniProt P29275); assay: Human 2B Adenosine Receptor CHO-K1 cAMP functional assay; assay type: cell-based; details: cAMP antagonist functional assay, CHO-K1 cells stably expressing Human A2BR, NECA stimulation; read-out: Potency: A2BR KB
T2 sequence (P29275 1-332): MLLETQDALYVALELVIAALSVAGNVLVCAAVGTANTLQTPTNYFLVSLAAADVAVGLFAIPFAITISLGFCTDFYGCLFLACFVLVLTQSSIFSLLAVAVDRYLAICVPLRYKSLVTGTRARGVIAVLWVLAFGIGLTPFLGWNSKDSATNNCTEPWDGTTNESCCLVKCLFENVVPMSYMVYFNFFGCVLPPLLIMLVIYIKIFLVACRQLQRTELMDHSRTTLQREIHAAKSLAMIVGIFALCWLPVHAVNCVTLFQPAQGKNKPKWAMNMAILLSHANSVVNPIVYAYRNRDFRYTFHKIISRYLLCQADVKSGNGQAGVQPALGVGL
Protocol: Measurement of the Adenosine Receptor Activity of Compounds Using a Human 2B Adenosine Receptor CHO-K1 cAMP Functional Assay
CHO-K1 cells stably expressing Human Adenosine 2B Receptor (A2BR: Cat. No. M000329, GenScript) were purchased from GenScript Inc., Piscataway, N.J. 08854, USA.
The cAMP antagonist functional assay (Perkin Elmer) was performed on CHO-K1 cells stably expressing Human A2BR. 1×10^6 cells were seeded in T75 flasks and cultured at 37° C. and 5% CO2 overnight. 2,000-4,000 cells/well of stably-expressed A2bR CHO-K1 cells were then seeded to a white 384-well Opti plate followed by compound 1 incubation at various concentrations (ranging from 1 μM to 0 μM) at 37° C. for 1 hour.
as §1, §2

Row | Kb (Human A2AR) | Kb (Human A2BR) | Compound
1 | < 100 nM | < 100 nM | COc1cccc2c(-c3cn(Cc4cccc(-c5cccc(C(=O)O)c5)n4)nn3)nc(N)nc12
2 | < 100 nM | < 100 nM | COc1cc(F)cc2c(-c3cn(Cc4cccc(C(C)(C)O)n4)nn3)nc(N)nc12
3 | < 100 nM | 100 to 1000 nM | COc1cccc2c(-c3cn(Cc4cccc(-c5ccccc5C(=O)O)n4)nn3)nc(N)nc12
4 | < 100 nM | < 100 nM | COc1ccc2c(-c3cn(Cc4cccc(C(C)(C)O)n4)nn3)nc(N)nc2c1
5 | < 100 nM | < 100 nM | COc1cccc2c(-c3cn(Cc4cccc(COC[C@H]5CCCO5)n4)nn3)nc(N)nc12
6 | < 100 nM | < 100 nM | COc1cccc2c(-c3cn(Cc4cccc(C(C)(C)O)n4)nn3)nc(N[C@H]3CCOC3)nc12
7 | < 100 nM | < 100 nM | COc1c(F)ccc2c(-c3cn(Cc4cccc(C5(O)COC5)n4)nn3)nc(N)nc12
8 | < 100 nM | < 100 nM | COc1cccc2c(-c3cn(Cc4cccc(N5CCCC5=O)n4)nn3)nc(N)nc12
9 | < 100 nM | < 100 nM | COc1cccc2c(-c3cn(Cc4cccc(C(C)(C)CO)n4)nn3)nc(N)nc12
10 | < 100 nM | < 100 nM | COc1cccc2c(-c3cn(Cc4cccc(C5(O)COC5)n4)nn3)nc(N)nc12
11 | < 100 nM | < 100 nM | COc1cccc2c(-c3cn(Cc4cccc(C5(O)CCOCC5)n4)nn3)nc(N)nc12
12 | < 100 nM | < 100 nM | CC(C)(CO)c1cccc(Cn2cc(-c3nc(N)nc4c(F)cccc34)nn2)n1
13 | < 100 nM | < 100 nM | COc1cccc2c(-c3cn(Cc4cccc(C(C)(O)C(F)(F)F)n4)nn3)nc(N)nc12 (stereo not drawn)
14 | < 100 nM | < 100 nM | CC(C)(O)c1cccc(Cn2cc(-c3nc(N)nc4cc(C#N)ccc34)nn2)n1
15 | < 100 nM | < 100 nM | COc1cccc2c(-c3cn(Cc4cccc(C(C)(C)O)n4)nn3)nc(NC(C)C)nc12
16 | < 100 nM | < 100 nM | COc1cccc2c(-c3cn(Cc4cccc(C(C)(C)O)n4)nn3)nc(NC3CC3)nc12
17 | < 100 nM | < 100 nM | COc1cccc2c(-c3cn(Cc4cccc([C@](C)(O)C(F)(F)F)n4)nn3)nc(N)nc12
18 | < 100 nM | < 100 nM | COc1cccc2c(-c3cn(Cc4cccc([C@@](C)(O)C(F)(F)F)n4)nn3)nc(N)nc12
19 | < 100 nM | 100 to 1000 nM | Nc1nc(-c2cn(Cc3cccc(C4(O)COC4)n3)nn2)c2cccc(F)c2n1
20 | < 100 nM | < 100 nM | CC(C)(O)c1cccc(Cn2cc(-c3nc(N)nc4c(F)c(F)ccc34)nn2)n1
21 | < 100 nM | < 100 nM | COCCOCc1cccc(Cn2cc(-c3nc(N)nc4c(Cl)cccc34)nn2)n1
22 | < 100 nM | < 100 nM | COc1c(F)ccc2c(-c3cn(Cc4cccc(C(C)(C)CO)n4)nn3)nc(N)nc12
23 | < 100 nM | 100 to 1000 nM | CCOc1cccc2c(-c3cn(Cc4cccc(C(C)(C)O)n4)nn3)nc(N)nc12
24 | < 100 nM | < 100 nM | COc1cccc2c(-c3cnn(Cc4cccc(C5(O)CCC5)n4)c3)nc(N)nc12
25 | < 100 nM | < 100 nM | COc1cccc2c(-c3cn(Cc4cccc(-c5ccc(C(=O)O)cc5)n4)nn3)nc(N)nc12
26 | < 100 nM | < 100 nM | CCOC(=O)N1CCC(c2cccc(Cn3cc(-c4nc(N)nc5c(OC)cccc45)nn3)n2)CC1
27 | < 100 nM | < 100 nM | COc1cccc2c(-c3cn(Cc4cccc(N5CCC(O)C5)n4)nn3)nc(N)nc12 (stereo not drawn)
